Columns and labels:
[1] = Inhibition of human GFP-fused ABCG2 expressed in MDCK2 cells assessed as potentiation of SN-38 induced cytotoxicity by measuring cell viability after 72 hrs by MTT assay
[2] = Inhibition of human GFP-fused ABCG2 expressed in MDCK2 cells assessed as potentiation of mitoxantrone induced cytotoxicity by measuring cell viability after 72 hrs by MTT assay

SMILES	EC50 [1]	EC50 [2]
Cc1cc(Nc2ccc(O)c([N+](=O)[O-])c2)nc(-c2ccccc2)n1	0.062 µM	0.022 µM
N#Cc1cccc(Nc2nc(-c3cccnc3)nc3ccccc23)c1	0.085 µM	–
O=[N+]([O-])c1ccc(Nc2nc(-c3cccnc3)nc3ccccc23)cc1	0.021 µM	0.013 µM
